Data: publication PMC9181926, “Synthesis and Antiproliferative Activity of Novel Dehydroabietic Acid-Chalcone Hybrids” (Molecules, 2022)
Several values for one entry are separate records, joined by “and”; a condition that tells them apart may be missing. Equal values may be shown once.

Experiments:
Assay type in all cases: cell-based, human
[1] = test system: MDA-MB-231 cells; assay: Antiproliferation assay (cell counting, 48 h) in MDA-MB-231 breast cancer cells; settings: for IC50: MDA-MB-231 cells, 48 h incubation, cell counting; for Selectivity Index for MDA-MB-231: FB IC50 relative to MDA-MB-231 IC50
Source text: (§1) Regarding the different characteristics of the used breast cancer cell lines, we can notice that MDA-MB-231 and Hs578T are triple negative.
(§2) Primary skin normal fibroblasts were kindly provided by Prof. Emer.

[2] = test system: normal primary fibroblasts (FB); assay: cells; settings: for IC50: Fibroblast, normal primary human fibroblasts, 48 h incubation, cell counting
Source text: as §2

[3] = test system: MCF-7 cells; assay: Antiproliferation assay (cell counting, 48 h) in MCF-7 breast cancer cells; settings: for IC50: MCF-7 cells, 48 h incubation, cell counting; for Selectivity Index for MCF-7: FB IC50 relative to MCF-7 IC50
Source text: as §1, §2

[4] = test system: Hs578T cells; assay: Antiproliferation assay (cell counting, 48 h) in Hs578T breast cancer cells; settings: for IC50: Hs578T cells, 48 h incubation, cell counting; for Selectivity Index for Hs578T: FB IC50 relative to Hs578T IC50
Source text: as §1, §2

Compound | IC50 ([1]; Homo sapiens) [µM] | IC50 [2] [µM] | IC50 ([3]; Homo sapiens, MCF7) [µM] | IC50 ([4]; Homo sapiens, Hs-578T) [µM] | Selectivity Index for MDA-MB-231 [1] | Selectivity Index for MCF-7 [3] | Selectivity Index for Hs578T [4] | times less toxic than 5-FU [2] [times] | IC50 [1] [µM] | IC50 [3] [µM] | IC50 [4] [µM]
COC(=O)[C@]1(C)CCC[C@]2(C)c3cc(O)c(C(=O)/C=C/c4ccnc5ccccc45)cc3CCC12 (stereo partly drawn) [Compound 40, (1R,4aS)-methyl 6-hydroxy-1,4a-dimethyl-7-((E)-3-(quinolin-4-yl)acryloyl)-1,2,3,4,4a, 9,10,10a-octahydrophenanthrene-1-carboxylate] | > 75 | 92.1 ± 5.47 | > 75 | > 75 | – | – | – | – | – | – | –
COC(=O)[C@]1(C)CCC[C@]2(C)c3cc(O)c(/C=C/C(=O)c4ccccn4)cc3CCC12 (stereo partly drawn) [Compound 49, (1R,4aS)-methyl 6-hydroxy-1,4a-dimethyl-7-((E)-3-oxo-3-(pyridin-2-yl)prop-1-en-1-yl)-1,2,3,4,4a,9,10,10a-octahydrophenanthrene-1-carboxylate] | 22.4 ± 0.81 | 23.8 ± 1.07 | 45.9 ± 1.52 | 17.1 ± 2.13 | 1.06 | 0.52 | 1.39 | – | – | – | –
COC(=O)[C@]1(C)CCC[C@]2(C)c3cc(O)c(C(=O)/C=C/c4ccc5ccccc5n4)cc3CCC12 (stereo partly drawn) [Compound 38, (1R,4aS)-methyl 6-hydroxy-1,4a-dimethyl-7-((E)-3-(quinolin-2-yl)acryloyl)-1,2,3,4,4a, 9,10,10a-octahydrophenanthrene-1-carboxylate] | 73 ± 2.31 | 161 ± 13.1 | 7.06 ± 1.71 | > 75 | 2.20 | 22.7 and 22.75 | – | 12.9 | – | – | –
COC(=O)[C@]1(C)CCC[C@]2(C)c3cc(O)c(C(=O)/C=C/c4cnc5ccccc5c4)cc3CCC12 (stereo partly drawn) [Compound 39, (1R,4aS)-methyl 6-hydroxy-1,4a-dimethyl-7-((E)-3-(quinolin-3-yl)acryloyl)-1,2,3,4,4a, 9,10,10a-octahydrophenanthrene-1-carboxylate] | > 75 | 32.9 ± 2.27 | 11.5 ± 1.02 | 15.7 ± 2.74 | – | 2.86 | 2.09 | – | – | – | –
O=c1[nH]cc(F)c(=O)[nH]1 [Compound 5-FU, 5-fluorouracil, reference compound] | 19.2 ± 0.39 | 9.43 ± 0.8 | 5.37 ± 1.16 | 7.38 ± 2.49 | 0.49 | 1.76 | 1.28 | – | – | – | –
COC(=O)[C@]1(C)CCC[C@]2(C)c3cc(O)c(C(=O)/C=C/c4ccncc4)cc3CCC12 (stereo partly drawn) [Compound 35, (1R,4aS)-methyl 6-hydroxy-1,4a-dimethyl-7-((E)-3-(pyridin-4-yl)acryloyl)-1,2,3,4,4a, 9,10,10a-octahydrophenanthrene-1-carboxylate] | 37.1 ± 1.82 | 33.8 ± 6.63 | 9.9 ± 0.05 | 8.69 ± 0.55 | 0.91 | 3.42 | 3.89 | – | – | – | –
COC(=O)[C@]1(C)CCC[C@]2(C)c3cc(O)c(/C=C/C(=O)c4ccc(Br)s4)cc3CCC12 (stereo partly drawn) [Compound 53, (1R,4aS)-methyl 7-((E)-3-(5-bromothiophen-2-yl)-3-oxoprop-1-en-1-yl)-6-hydroxy-1,4a-dimthyl-1,2,3,4,4a,9,10,10a-octahydrophenanthrene-1-carboxylate] | 17.1 ± 0.41 | – | 41.4 ± 1.74 | 28.4 ± 1.97 | – | – | – | – | – | – | –
(1R,4aS)-methyl 7-((E)-3-(benzofuran-2-yl)acryloyl)-6-hydroxy-1,4a-dimethyl-1,2,3, 4,4a,9,10, 10a-octahydrophenanthrene-1-carboxylate [Compound 52] | – | – | – | – | – | – | – | – | > 75 | > 75 | 60.2 ± 6.94
COC(=O)[C@]1(C)CCC[C@]2(C)c3cc(O)c(C(=O)/C=C/c4c[nH]c5ccccc45)cc3CCC12 (stereo partly drawn) [Compound 46, (1R,4aS)-methyl 7-((E)-3-(1H-indol-3-yl)acryloyl)-6-hydroxy-1,4a-dimethyl-1,2,3,4,4a,9,10,10a-octahydrophenanthrene-1-carboxylate] | > 75 | – | > 75 | > 75 | – | – | – | – | – | – | –
(1R,4aS)-methyl 7-((E)-3-(2-hydroxyphenyl)-3-oxoprop-1-en-1-yl)-6-methoxy-1,4a-dimethyl-1,2,3,4,4a,9,10,10a-octahydrophenanthrene-1-carboxylate [Compound 31] | – | – | – | – | – | – | – | – | > 75 | 23.9 ± 4.47 | > 75
COC(=O)[C@]1(C)CCC[C@]2(C)c3cc(O)c(C(C)=O)cc3CCC12 (some centres unmarked) [Compound 28] | 115 ± 40.1 | – | 207 ± 7.28 | 136 ± 2.47 | – | – | – | – | – | – | –
COC(=O)[C@]1(C)CCC[C@]2(C)c3cc(OC)c(C(=O)/C=C/c4cccnc4)cc3CCC12 (stereo partly drawn) [Compound 32, (1R,4aS)-methyl 6-methoxy-1,4a-dimethyl-7-((E)-3-(pyridin-3-yl)acryloyl)-1,2,3,4,4a, 9,10,10a-octahydrophenanthrene-1-carboxylate] | > 75 | – | > 75 | > 75 | – | – | – | – | – | – | –
Tert-butyl 4-(4-((E)-3-((4bS,8R)-3-methoxy-8-(methoxycarbonyl)-4b,8-dimethyl-4b,5, 6,7,8,8a,9,10-octahydrophenanthren-2-yl)acryloyl)phenyl)piperazine-1-carboxylate [Compound 48] | – | – | – | – | – | – | – | – | > 75 | 25.62 ± 0.09 | 23.2 ± 2.5
(E)-3-(furan-2-yl)-1-((4bS,8R)-3-hydroxy-8-methoxy-4b,8-dimethyl-4b,5,6,7,8,8a,9,10-octahydrophenanthren-2-yl)prop-2-en-1-one [Compound 42] | – | – | – | – | – | – | – | – | > 75 | 37 ± 6.89 | 43.3 ± 4.32
(1R,4aS)-methyl 6-hydroxy-1,4a-dimethyl-7-((E)-3-(2,4,5-trifluorophenyl)acryloyl)-1,2,3,4,4a,9,10,10a-octahydrophenanthrene-1-carboxylate [Compound 36] | – | – | – | – | – | – | – | – | > 75 | > 75 | > 75
(E)-1-((4bS,8R)-3-hydroxy-8-methoxy-4b,8-dimethyl-4b,5,6,7,8,8a,9,10-octahydrophenanthren-2-yl)-3-(pyridin-2-yl)prop-2-en-1-one [Compound 34] | – | – | – | – | – | – | – | – | > 75 | 21.4 ± 0.6 | 28.1 ± 7.76
COC(=O)[C@]1(C)CCC[C@]2(C)c3cc(O)c(C(=O)/C=C/c4ccc(Br)s4)cc3CCC12 (stereo partly drawn) [Compound 45, (1R,4aS)-methyl 7-((E)-3-(5-bromothiophen-2-yl)acryloyl)-6-hydroxy-1,4a-dimethyl-1,2,3,4,4a,9,10,10a-octahydrophenanthrene-1-carboxylate] | > 75 | – | 29.9 ± 5.26 | > 75 | – | – | – | – | – | – | –
COC(=O)[C@]1(C)CCC[C@]2(C)c3cc(O)c(C(=O)/C=C/c4csc5ccccc45)cc3CCC12 (stereo partly drawn) [Compound 47, (1R,4aS)-methyl 7-((E)-3-(benzo[b]thiophen-3-yl)acryloyl)-6-hydroxy-1,4a-dimethyl-1,2,3,4,4a,9,10,10a-octahydrophenanthrene-1-carboxylate] | 40.4 ± 0.67 | – | 12.5 ± 8.43 | > 75 | – | – | – | – | – | – | –
(1R,4aS)-6-hydroxy-1,4a-dimethyl-7-((E)-3-(naphthalen-2-yl)acryloyl)-1,2,3,4,4a,9,10, 10a-octahydrophenanthrene-1-carboxylic acid [Compound 37] | – | – | – | – | – | – | – | – | > 75 | 11.4 ± 1.55 | > 75
